Assay results reported in ChEMBL document CHEMBL1151727, “Citrullination of linear and cyclic altered peptide ligands from myelin basic protein (MBP(87-99)) epitope elicits a Th1 polarized response by T cells isolated from multiple sclerosis patients: implications in triggering disease” (J Med Chem, 2008).
The source made the active and inactive calls. Where a SMILES comes first, the peptide text is derived from it. [ ]: non-standard residue; d: D form. Cit = NC(=O)NCCC[C@H](N)C(=O)O

Key:
Type in all cases: functional, cell-based
PBMC [1] = assay: Induction of IL10 secretion in healthy human PBMC at 10 pg/mL per 10^6 cells after 72 hrs by ELISA
PBMC [2] = assay: Decrease in IL10 secretion in PBMC isolated from multiple sclerosis patient at 10 pg/mL per 10^6 cells after 72 hrs by ELISA; details: Homo sapiens
PBMC [3] = assay: Increase in IL2 secretion in PBMC isolated from multiple sclerosis patient at 10 pg/mL per 10^6 cells after 72 hrs by ELISA; details: Homo sapiens
PBMC [4] = assay: Increase in IFN-gamma secretion in PBMC isolated from multiple sclerosis patient at 10 pg/mL per 10^6 cells after 72 hrs by ELISA; details: Homo sapiens
PBMC [5] = assay: Induction of IFN-gamma secretion in healthy human PBMC at 10 pg/mL per 10^6 cells after 72 hrs by ELISA

Measured: Activity

CC[C@H](C)[C@H](NC(=O)[C@H](CC(N)=O)NC(=O)[C@H](CCCCN)NC(=O)[C@H](Cc1ccccc1)NC(=O)[C@H](Cc1ccccc1)NC(=O)[C@H](Cc1cnc[nH]1)NC(=O)[C@@H](N)C(C)C)C(=O)N[C@H](C(=O)N[C@H](C(=O)N1CCC[C@H]1C(=O)N[C@@H](CCCNC(=N)N)C(=O)N[C@H](C(=O)N1CCC[C@H]1C(=O)O)[C@@H](C)O)[C@@H](C)O)C(C)C
active: PBMC [1] | PBMC [2]

CC[C@H](C)[C@H](NC(=O)[C@H](CC(N)=O)NC(=O)[C@H](CCCNC(N)=O)NC(=O)[C@H](Cc1ccccc1)NC(=O)[C@H](Cc1ccccc1)NC(=O)[C@H](Cc1cnc[nH]1)NC(=O)[C@@H](N)C(C)C)C(=O)N[C@H](C(=O)N[C@H](C(=O)N[C@@H](C)C(=O)N[C@@H](CCCNC(N)=O)C(=O)N[C@H](C(=O)N1CCC[C@H]1C(=O)O)[C@@H](C)O)[C@@H](C)O)C(C)C (H-VHFF[Cit]NIVTA[Cit]TP-OH)
active: all assays above

H-VHFFRNIVTARTP-OH
active: PBMC [1] | PBMC [5]
